Reference: paper PMC11077089, “Molecular basis of A. thaliana KEOPS complex in biosynthesizing tRNA t^6A” (Nucleic Acids Research, 2024)

How the values were obtained:
Assay type in all cases: biochemical
KBP (KAE1–BUD32–PCC1) = target: T1, KBP (KAE1–BUD32–PCC1) (Arabidopsis thaliana, UniProt Q94K14); assay: NADH-coupled ATPase assay; conditions: 2 mM ATP, 5 μM protein, 5 mM MgCl2, pH 7.5, 25°C
T1 construct: gene T1N24.12; subcomplex without CGI121, recombinant from E. coli; dimer by SEC; with tRNA N6-adenosine threonylcarbamoyltransferase KAE1; EKC/KEOPS complex subunit PCC1
T1 sequence (Q94K14 1-226): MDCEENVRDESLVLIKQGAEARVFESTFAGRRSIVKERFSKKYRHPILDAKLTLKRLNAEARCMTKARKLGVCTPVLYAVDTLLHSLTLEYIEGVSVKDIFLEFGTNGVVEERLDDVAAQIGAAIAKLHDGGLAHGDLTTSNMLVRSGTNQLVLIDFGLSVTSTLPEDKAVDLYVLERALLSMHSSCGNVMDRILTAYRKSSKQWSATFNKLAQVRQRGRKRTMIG
T1 sequence (O49653 1-353 partner): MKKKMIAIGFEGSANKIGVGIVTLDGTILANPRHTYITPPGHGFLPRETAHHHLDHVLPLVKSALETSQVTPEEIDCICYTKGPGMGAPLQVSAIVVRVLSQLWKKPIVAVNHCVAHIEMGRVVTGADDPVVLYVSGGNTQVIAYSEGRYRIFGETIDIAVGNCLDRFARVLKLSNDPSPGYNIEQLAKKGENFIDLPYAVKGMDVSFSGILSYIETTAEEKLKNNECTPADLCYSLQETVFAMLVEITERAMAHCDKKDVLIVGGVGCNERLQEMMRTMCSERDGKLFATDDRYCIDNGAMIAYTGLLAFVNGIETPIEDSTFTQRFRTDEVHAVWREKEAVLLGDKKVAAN
T1 sequence (Q8GWD7 1-96 partner): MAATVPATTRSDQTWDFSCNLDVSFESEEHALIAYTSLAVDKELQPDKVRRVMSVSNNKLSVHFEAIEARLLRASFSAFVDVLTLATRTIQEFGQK

KB (KAE1–BUD32) = target: T2, KB (KAE1–BUD32) (Arabidopsis thaliana, UniProt Q94K14); assay: NADH-coupled ATPase assay; conditions: 2 mM ATP, 5 μM protein, 5 mM MgCl2, pH 7.5, 25°C
T2 construct: gene T1N24.12; pET21a-AtKAE1-BUD32-6His, E. coli; monomer (1:1) by SEC; with tRNA N6-adenosine threonylcarbamoyltransferase KAE1
T2 sequence (Q94K14 1-226): T1 sequence (Q94K14 1-226)
T2 sequence (O49653 1-353 partner): T1 sequence (O49653 1-353 partner)

[1] = target: T3, AtYRDC (A. thaliana YRDC) (Arabidopsis thaliana, UniProt F4K0E6); assay: LC-MS of TC-AMP formation; conditions: 2 μM YRDC, 4 mM L-threonine, 2 mM ATP, 20 mM NaHCO3, 5 mM MgCl2, pH 7.5, 25°C
T3 construct: gene MUP24.1; pET21a-AtYRDC-6His, E. coli, synthetic DNA
T3 sequence (F4K0E6 1-288): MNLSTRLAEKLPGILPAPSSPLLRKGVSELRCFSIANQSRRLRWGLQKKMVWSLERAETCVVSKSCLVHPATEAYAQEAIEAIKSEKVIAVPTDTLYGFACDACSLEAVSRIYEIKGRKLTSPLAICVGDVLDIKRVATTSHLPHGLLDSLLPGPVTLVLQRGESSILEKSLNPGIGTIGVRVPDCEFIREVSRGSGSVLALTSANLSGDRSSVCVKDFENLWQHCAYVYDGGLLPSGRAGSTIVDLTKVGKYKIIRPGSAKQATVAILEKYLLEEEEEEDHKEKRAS

Row | SMILES | NADH-coupled ATPase assay (KBP (KAE1–BUD32–PCC1)) | NADH-coupled ATPase assay (KB (KAE1–BUD32)) | LC-MS of TC-AMP formation [1]
1 | Nc1ncnc2c1ncn2[C@@H]1O[C@H](COP(=O)(O)OP(=O)(O)OP(=O)(O)O)[C@@H](O)[C@H]1O [ATP] | efficient conversion of ATP to ADP in the presence of KAE1–BUD32, PCC1–KAE1–BUD32 or KEOPS | efficient conversion of ATP to ADP in the presence of KAE1–BUD32, PCC1–KAE1–BUD32 or KEOPS | 
2 | C[C@@H](O)[C@H](N)C(=O)O [L-threonine] |  |  | YRDC is active in catalyzing the formation of threonylcarbamoyl-AMP (TC-AMP)
